Measurements published in patent publication US20120190751A1, “COMPOUNDS FOR TREATMENTS OF INFLAMMATION” (ANA-MAR AB, priority 2009, published 2012).
“Also recorded” adds a separate entry of the source.

Experiments:
5-HT1A receptor = biological target: T1, 5-HT1A receptor (Homo sapiens, UniProt P08908); test: Radio-ligand binding assay 5-HT1A; settings: 10 μM compound; [3H]-8-OH-DPAT 0.5 nM; human rec. HEK293 cells
T1 sequence (P08908 1-422): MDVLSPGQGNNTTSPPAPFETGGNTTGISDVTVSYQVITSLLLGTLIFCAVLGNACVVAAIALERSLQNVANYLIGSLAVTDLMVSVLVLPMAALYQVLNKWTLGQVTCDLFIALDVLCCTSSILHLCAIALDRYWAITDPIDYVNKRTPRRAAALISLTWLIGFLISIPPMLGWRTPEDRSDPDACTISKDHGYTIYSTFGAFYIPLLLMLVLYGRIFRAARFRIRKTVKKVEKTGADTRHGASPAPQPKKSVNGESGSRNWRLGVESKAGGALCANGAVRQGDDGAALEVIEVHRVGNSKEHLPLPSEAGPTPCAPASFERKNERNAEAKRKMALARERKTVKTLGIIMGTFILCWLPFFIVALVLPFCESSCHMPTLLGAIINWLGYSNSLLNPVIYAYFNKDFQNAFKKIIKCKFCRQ
Method: (§1) Determination of binding affinities for various 5-HT receptors was performed by radio-ligand binding assays. Briefly, tissue or cells expressing the receptor of interest were suspended in incubation buffer and radio-ligands and 10 μM N-(2-chloro-3,4-dimethoxybenzylidene-amino)guanidine were added. After incubation, separation of bound and free radio-ligand was done by multiple washings with buffer.
(§2) The results were presented as the percent inhibition of specific binding. The IC50 values were determined by a non-linear least square regression analysis using MathIQ™ (ID Business Solution Ltd., UK). The inhibition constants (Ki) were calculated using the equation of Cheng and Prusoff (Cheng Y, Prusoff W H, Biochem. Pharmacol. 22:3099-3108, 1973) using the observed IC50 of the tested compound, the concentration of radioligand employed in the assay and the historical values for the KD of the ligand.

5-HT7 receptor = 5-HT7 receptor (Homo sapiens, UniProt P34969); test: Radio-ligand binding assay 5-HT7; settings: 10 μM compound; [3H] LSD 2.5 nM; human rec. CHO cells
Method: as §1, §2

5-HT2A receptor = 5-HT2A receptor (Homo sapiens, UniProt P28223); test: Radio-ligand binding assay 5-HT2A; settings: 10 μM compound; [3H]-Ketanserin 2 nM; human cortex
Method: as §1, §2

rat synoviocytes = test: IL-6 release from LPS-stimulated rat synoviocytes; format: cell-based; settings: 72 hours
Method: Pannus from the inflamed knee of rats with antigen-induced arthritis (AIA) (see description of this model below; Andersson, S. E et al., (1998), J. Rheumatology 25: 1772-1777) was isolated three to five days after challenge, stored in PBS supplemented with 100 U/ml Penicillin-Streptomycin (PEST, Invitrogen Corporation) and 2.5 μg/ml Fungizone (Amphotericin B, Invitrogen) until it was further processed within a couple of hours. The PBS was discarded and the tissue cut in small pieces followed by digestion in a collagenase solution (400 U/ml; type 1 CLS-1, Worthington) for 3 hours at 37° C., 5% CO2. The suspension was filtered through a nylon mesh (70 μm), washed with tissue culture medium (RPMI-1640 with L-glutamine, Invitrogen, supplemented with 10% fetal bovine serum (FBS) and 100 U/ml PEST and 2.5 μg/ml Fungizone) and centrifuged (257 g). The cells were resuspended in tissue culture medium and seeded in cell culture flasks (T25, TPP). After overnight culture, nonadherent cells were removed by exchanging the medium, the cells were incubated at 37° C., 5% CO2, the medium was exchanged every third day until confluence was reached (7-10 days). The culture consisted of a mixed cell population with the principal constituents being fibroblasts and macrophages (Andersson, S. E. et al. (2000), Eur. J. Pharm. Sci 9: 333-343).
The cells were counted and reseeded at a density of 10000 cells/0.2 ml in 96-well cell culture plates (Nunc). After overnight culture the cells were stimulated with 50 ng/ml Lipopolysaccharide (LPS, E. coli 055:B5, Sigma) with simultaneous addition of 0.1, 1 and 10 μM N-(2-chloro-3,4-dimethoxybenzylideneamino)guanidine and 1 μM of 5-HT2 receptor agonists (triplicates). The cells were incubated for 72 hours after which the supernatants were collected and analyzed for IL-6 (OptEIA™ Set Rat IL-6). The effect of treatment on cell viability was determined using the cell proliferation reagent, WST-1 (Roche Diagnostics).
Inflamed knee joints of rats with antigen-induced arthritis (AIA) were dissected four days after intra-articular challenge with antigen. Freshly isolated pannus tissue was collected in phosphate-buffered saline (PBS) supplemented with 100 U/ml penicillin, streptomycin (PEST, Invitrogen) and 2.5 μg/ml Fungizone (Amphotericin B, Invitrogen), finely minced with a pair of scissors and digested with 400 U/ml collagenase (type 1 CLS-1, Worthington) in RPMI 1640 (Gibco) supplemented with PEST and fungizone (2.5 μg/ml) for 3 hours. The cell suspension was filtered through a 70 μm nylon mesh and the cells collected by centrifugation at 257×g, 10 min. The cells were resuspended in RPMI 1640 supplemented with 10% FBS (Gibco), PEST and fungizone (culture medium), plated in T25 flasks (TPP Cat#90026). After overnight incubation nonadherent cells were removed and the culture medium was replaced every third day until the cells approached confluency (normally achieved within 7-10 days). At near-confluency, the cells were washed with PBS and harvested by trypsination. After washing in PBS the cells were resuspended in culture medium and seeded at 10.000 cells/well/0.2 ml in 96 well plates (Nunc cat#167008). After overnight culture the culture medium was replaced with fresh medium and 50 ng/ml LPS (Sigma, L6529) together with different concentrations of 5-HT, 5-HT2 receptor agonists and/or antagonists and N-(2-chloro-3,4-dimethoxybenzylideneamino)guanidine. The cells were incubated for 72 hours after which the supernatants were collected and analyzed for IL-6 (BD OptEIA™ Set). The effect of treatment on cell viability was determined using the cell proliferation reagent, WST-1 (Roche Diagnostics). In another experiment rat synoviocytes were incubated with 50 ng/ml LPS for 2 or 22 hours were after the levels of 5-HT was analysed in the cell culture medium using a Serotonin ELISA kit (IBL International, RE59121). We also incubated rat synoviocytes with 5-HT (10 μM) and measured the gene expression of 5-HT2B and 5-HT2C.

5-HT2A receptor, sequence (P28223 whole entry): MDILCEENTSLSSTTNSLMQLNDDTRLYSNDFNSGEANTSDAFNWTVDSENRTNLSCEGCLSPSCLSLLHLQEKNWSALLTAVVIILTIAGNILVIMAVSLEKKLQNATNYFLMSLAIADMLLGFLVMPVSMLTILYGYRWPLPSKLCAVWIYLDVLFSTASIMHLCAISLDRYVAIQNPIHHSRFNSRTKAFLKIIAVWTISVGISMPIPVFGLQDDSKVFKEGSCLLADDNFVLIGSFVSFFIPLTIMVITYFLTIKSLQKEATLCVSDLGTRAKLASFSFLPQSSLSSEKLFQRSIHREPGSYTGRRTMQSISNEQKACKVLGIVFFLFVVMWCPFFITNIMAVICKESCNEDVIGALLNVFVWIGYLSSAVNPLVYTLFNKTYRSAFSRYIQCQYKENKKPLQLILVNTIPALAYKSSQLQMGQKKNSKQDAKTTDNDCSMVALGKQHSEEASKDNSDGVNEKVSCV
5-HT7 receptor, sequence (P34969 whole entry): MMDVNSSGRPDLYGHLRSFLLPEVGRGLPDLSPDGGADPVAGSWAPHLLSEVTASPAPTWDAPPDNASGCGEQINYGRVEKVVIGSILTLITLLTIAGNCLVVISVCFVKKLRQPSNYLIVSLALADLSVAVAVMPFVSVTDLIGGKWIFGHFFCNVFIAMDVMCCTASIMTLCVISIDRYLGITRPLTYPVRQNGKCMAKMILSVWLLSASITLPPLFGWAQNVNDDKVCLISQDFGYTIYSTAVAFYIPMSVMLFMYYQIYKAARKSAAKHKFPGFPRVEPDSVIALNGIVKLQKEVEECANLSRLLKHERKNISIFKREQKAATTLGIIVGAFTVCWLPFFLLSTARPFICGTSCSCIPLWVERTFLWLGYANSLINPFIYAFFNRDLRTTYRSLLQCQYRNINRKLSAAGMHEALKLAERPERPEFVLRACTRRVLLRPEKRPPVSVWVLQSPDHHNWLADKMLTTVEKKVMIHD

## COc1ccc(C=NNC(=N)N)c(Cl)c1OC [N-(2-chloro-3,4-dimethoxybenzylideneamino)guanidine]
5-HT1A receptor
  inhibition at 10 µM: 17%
5-HT7 receptor
  inhibition at 10 µM: 53%
5-HT2A receptor
  inhibition at 10 µM: 45%
Rat synoviocytes; 1 μM 5-HT + LPS 50 ng/ml, test substance 0.1, 1 or 10 μM, FIG. 7A
  IL-6 release induced by 5-HT and LPS: reduces the IL-6 response
Rat synoviocytes; 1 μM BW 723C86 + LPS 50 ng/ml, compound 0.1, 1, 10 μM, FIG. 4, FIG. 7B
  IL-6 production induced by BW 723C86 (5-HT2B agonist) and LPS: in a dose-dependent way is counteracted; also recorded: reversed the effects
Rat synoviocytes; 1 μM CP 809101 + LPS 50 ng/ml, compound 0.1, 1, 10 μM, FIG. 4, FIG. 7B
  IL-6 production induced by CP 809101 (5-HT2C agonist) and LPS: is counteracted; also recorded: reversed the effects
